# Experimental data taken from ChEMBL document CHEMBL1149856, “Insulinomimetic effect of kaempferol 3-neohesperidoside on the rat soleus muscle” (2008).
# Activity calls are given as the source filed them. No cut-off for these calls is given here.
# Tests used:
# Soleus muscle [1] = experiment: Inhibition of 14C-glucose uptake in Wistar rat soleus muscle at 1 nM in presence of LY-294002; type: functional, tissue-based
# Soleus muscle [2] = experiment: Inhibition of 14C-glucose uptake in Wistar rat soleus muscle at 1 nM in presence of RO318220; type: functional, tissue-based
# Soleus muscle [3] = experiment: Stimulation of 14C-glucose uptake in Wistar rat soleus muscle at 1 nM in presence of PD-98059; type: functional, tissue-based
# Soleus muscle [4] = experiment: Stimulation of 14C-glucose uptake in Wistar rat soleus muscle at 1 nM in presence of cycloheximide; type: functional, tissue-based
# Rattus norvegicus = experiment: Increase in glycogen level in diabetic Wistar rat soleus muscle at 100 mg/kg after 24 hrs; type: functional
# [5] = Stimulation of 14C-glucose uptake in Wistar rat soleus muscle at 1 nM
# [6] = Stimulation of 14C-glucose uptake in Wistar rat soleus muscle at 100 nM
compound,measurement,setting,value
C[C@H]1O[C@H](O[C@H]2[C@H](Oc3c(-c4ccc(O)cc4)oc4cc(O)cc(O)c4c3=O)O[C@H](CO)[C@@H](O)[C@@H]2O)[C@@H](O)[C@@H](O)[C@@H]1O,Activity,Soleus muscle [1],Active
same,Activity,Soleus muscle [2],Active
same,Activity,Soleus muscle [3],Active
same,Activity,Soleus muscle [4],Active
same,Activity,Rattus norvegicus,380%
same,Activity,[5],35%
same,Activity,[6],21%
